Test results as given in PMC7274154, “Identification and Characterization of GPCRs for Pyrokinin and CAPA Peptides in the Brown Marmorated Stink Bug, Halyomorpha halys (Hemiptera: Pentatomidae)” (Frontiers in Physiology, 2020).
“Also recorded” adds a separate entry of the source. Where no end group is shown, it is not given here.

Legend:
Format in all cases: cell-based, Halyomorpha halys
HalhaPK-R3a [1] = experiment: Concentration-response, calcium mobilization (FLIPR Calcium 6) in Sf9 cells expressing HalhaPK-R3a; conditions: for EC50: HalhaPK-R3a in Sf9 cells, intracellular calcium, FLIPR Calcium 6 fluorescence, at least three independent experiments, read-out: Half-maximum effective concentration (EC50); for Response in functional assay (words): HalhaPK-R3a, Sf9 cells, concentration-response
Procedure: (§1) Five micrograms of each purified pIB/HalhaPK-R (or CAPA-R) plasmid and 15 μL of Cellfectin II reagent (Thermo Fisher Scientific) were diluted into 500 μL of serum free Insectagro Sf9 medium (Corning, Corning, NY, United States) and allowed to incubate for 10 min at room temperature, after which they were mixed together and allowed to incubate for an additional 15–20 min. Each pIB/HalhaPK-R (or CAPA-R) Cellfectin mixture was then added to T-25 cell culture flasks containing Sf9 cells at 50% confluency and incubated overnight at 28°C. The following morning the media was removed from each flask and replaced with media containing 20 μg/mL blasticidin (Corning). Each transfected cell line was cultured in the presence of 20 μg/mL blasticidin for ∼3 weeks until a blasticidin-resistant cell line was established, after which the blasticidin concentration was reduced to 10 μg/mL and the cell lines were frozen prior to testing in functional assays.
(§2) Peptides encoded by H. halys pyrokinin and capa genes used in this study have been recently identified ([Ahn and Choi, 2018]). Four peptides (>95% purity): PK2 (FYAPFSPRLa), CAPA-PVK1 ([…]a), CAPA-PVK2 (EQLIPFPRVa), and CAPA-DH (= PK1-like, […]a) were synthesized to contain an amide group on their C-termini (Peptide 2.0 Inc., Chantilly, VA, United States). Peptides were solubilized in water, aliquoted into 2–20 nM working stocks, dried using a DNA120 SpeedVac Concentrator (Thermo Scientific), and frozen at –20°C until use in binding assays.
(§3) For each cell line expressing a specific H. halys PRXamide receptor, cells were thawed and cultured for at least three passages in a suspension culture containing blasticidin prior to functional assays. The transfected cell lines were grown as 20 mL suspension cultures in 50 mL-Erlenmeyer flasks with a screw cap, and shaken at 145 rpm at 28°C. For functional assays, cells were taken from a suspension culture in the exponential growth phase, and ∼50,000 cells were plated into each well of a tissue culture-treated, black-walled, 96-well plate (Corning). The plated cells were then incubated at 28°C for 48 h, after which the media was removed from the plates and the wells were rinsed with serum-free media, then loaded with 95 μL of 1X FLIPR Calcium 6 assay reagent (Molecular Devices, Sunnyvale, CA, United States). Plates were incubated at room temperature for 60 min then transferred to a FlexStation 3 Multi-Mode Microplate Reader (Molecular Devices) to measure cell fluorescence intensity from intracellular calcium influx after peptide-induced receptor activation. Wells of cells were then treated with 5 μL of water or 20X concentrations of each peptide using the automated injection system of the FlexStation plate reader. In all experiments, fluorescence was measured every 5 s for 30 s prior to treatment and for 2 min after exposure. In all cases, the maximum response obtained occurred ∼20 s after exposure to ligand. The mean response of four wells receiving the same treatment was calculated and expressed as a change in fluorescence from baseline (prior to treatment) to maximum response. For initial screening, each cell line was exposed to a single concentration of 500 nM of each peptide or control. Compounds that elicited responses were tested further in concentration-response experiments. Concentration-response curves and EC50 values were generated using the variable slope, four parameter non-linear regression function of GraphPad Prism data analysis (GraphPad Software, Inc., San Diego, CA, United States). Each cell line was tested for its response to peptides in at least three independent experiments.

HalhaPK-R2 [2] = experiment: Initial screening at 500 nM, Sf9 cells expressing HalhaPK-R2; conditions: three independent experiments
Procedure: as §1, with “Each transfected cell line was cultured in the presence of 20 μg/mL blasticidin for ∼3 weeks until a blasticidin-resistant cell line was established, after which the blasticidin concentration was reduced to 10 μg/mL and the cell lines were frozen prior to testing in functional assays.” left out
(§4) For each cell line expressing a specific H. halys PRXamide receptor, cells were thawed and cultured for at least three passages in a suspension culture containing blasticidin prior to functional assays. […] Plates were incubated at room temperature for 60 min then transferred to a FlexStation 3 Multi-Mode Microplate Reader (Molecular Devices) to measure cell fluorescence intensity from intracellular calcium influx after peptide-induced receptor activation. Wells of cells were then treated with 5 μL of water or 20X concentrations of each peptide using the automated injection system of the FlexStation plate reader. In all experiments, fluorescence was measured every 5 s for 30 s prior to treatment and for 2 min after exposure. […]

HalhaPK-R1a [3] = experiment: Concentration-response, calcium mobilization (FLIPR Calcium 6) in Sf9 cells expressing HalhaPK-R1a; conditions: for EC50: HalhaPK-R1a in Sf9 cells, intracellular calcium, FLIPR Calcium 6 fluorescence, at least three independent experiments, read-out: Half-maximum effective concentration (EC50)
Procedure: as §1, §2
as §3, with “Concentration-response curves and EC50 values were generated using the variable slope, four parameter non-linear regression function of GraphPad Prism data analysis (GraphPad Software, Inc., San Diego, CA, United States). Each cell line was tested for its response to peptides in at least three independent experiments.” left out

HalhaPK-R2 [4] = experiment: Concentration-response, calcium mobilization (FLIPR Calcium 6) in Sf9 cells expressing HalhaPK-R2; conditions: for Response in functional assay (words): HalhaPK-R2, Sf9 cells, concentration-response; for EC50: HalhaPK-R2 in Sf9 cells, intracellular calcium, FLIPR Calcium 6 fluorescence, at least three independent experiments, read-out: Half-maximum effective concentration (EC50)
Procedure: as §1, §2, §3

HalhaPK-R1a [5] = experiment: Initial screening at 500 nM, Sf9 cells expressing HalhaPK-R1a; conditions: three independent experiments
Procedure: as §1, with “Each transfected cell line was cultured in the presence of 20 μg/mL blasticidin for ∼3 weeks until a blasticidin-resistant cell line was established, after which the blasticidin concentration was reduced to 10 μg/mL and the cell lines were frozen prior to testing in functional assays.” left out
as §4

HalhaPK-R3b [6] = experiment: Concentration-response, calcium mobilization (FLIPR Calcium 6) in Sf9 cells expressing HalhaPK-R3b; conditions: for EC50: HalhaPK-R3b in Sf9 cells, intracellular calcium, FLIPR Calcium 6 fluorescence, at least three independent experiments, read-out: Half-maximum effective concentration (EC50); for Response in functional assay (words): HalhaPK-R3b, Sf9 cells, concentration-response
Procedure: as §1, §2, §3

HalhaPK-R3a [7] = experiment: Initial screening at 500 nM, Sf9 cells expressing HalhaPK-R3a; conditions: three independent experiments
Procedure: as §1, with “Each transfected cell line was cultured in the presence of 20 μg/mL blasticidin for ∼3 weeks until a blasticidin-resistant cell line was established, after which the blasticidin concentration was reduced to 10 μg/mL and the cell lines were frozen prior to testing in functional assays.” left out
as §4

HalhaPK-R3b [8] = experiment: Initial screening at 500 nM, Sf9 cells expressing HalhaPK-R3b; conditions: three independent experiments
Procedure: as §1, with “Each transfected cell line was cultured in the presence of 20 μg/mL blasticidin for ∼3 weeks until a blasticidin-resistant cell line was established, after which the blasticidin concentration was reduced to 10 μg/mL and the cell lines were frozen prior to testing in functional assays.” left out
as §4

HalhaCAPA-R = experiment: Concentration-response, calcium mobilization (FLIPR Calcium 6) in Sf9 cells expressing HalhaCAPA-R; conditions: for EC50: HalhaCAPA-R in Sf9 cells, intracellular calcium, FLIPR Calcium 6 fluorescence, at least three independent experiments, read-out: Half-maximum effective concentration (EC50); for Response in functional assay (words): HalhaCAPA-R, Sf9 cells, concentration-response
Procedure: as §1, §2, §3

HalhaPK-R1b [9] = experiment: Initial screening at 500 nM, Sf9 cells expressing HalhaPK-R1b; conditions: three independent experiments
Procedure: as §1, with “Each transfected cell line was cultured in the presence of 20 μg/mL blasticidin for ∼3 weeks until a blasticidin-resistant cell line was established, after which the blasticidin concentration was reduced to 10 μg/mL and the cell lines were frozen prior to testing in functional assays.” left out
as §4

HalhaPK-R1b [10] = experiment: Concentration-response, calcium mobilization (FLIPR Calcium 6) in Sf9 cells expressing HalhaPK-R1b; conditions: for EC50: HalhaPK-R1b in Sf9 cells, intracellular calcium, FLIPR Calcium 6 fluorescence, at least three independent experiments, read-out: Half-maximum effective concentration (EC50)
Procedure: as §1, §2
as §3, with “Concentration-response curves and EC50 values were generated using the variable slope, four parameter non-linear regression function of GraphPad Prism data analysis (GraphPad Software, Inc., San Diego, CA, United States). Each cell line was tested for its response to peptides in at least three independent experiments.” left out

EC50 (HalhaPK-R3a [1]) [nM]	EC50 (HalhaPK-R1a [3]) [nM]	EC50 (HalhaPK-R2 [4]) [nM]	EC50 (HalhaPK-R3b [6]) [nM]	EC50 (HalhaCAPA-R) [nM]	EC50 (HalhaPK-R1b [10]) [nM]	Molecule	Response in functional assay (words) (HalhaPK-R3a [1])	Ligand-induced receptor activation (response in words) (HalhaPK-R2 [2])	Ligand-induced receptor activation (response in words) (HalhaPK-R1a [5])	Ligand-induced receptor activation (response in words) (HalhaPK-R3a [7])	Ligand-induced receptor activation (response in words) (HalhaPK-R3b [8])	Ligand-induced receptor activation (response in words) (HalhaPK-R1b [9])	Response in functional assay (words) (HalhaCAPA-R)	further results
199	> 1000	35	142	> 1000	420	FYAPFSPRL-NH2 [PBAN/PK2]	positive concentration-dependent activity	responded to PK2 and CAPA-DH peptides to varying degrees	responded to PK2 and CAPA-DH peptides to varying degrees	responded to PK2 and CAPA-DH peptides to varying degrees	responded to PK2 and CAPA-DH peptides to varying degrees	responded to PK2 and CAPA-DH peptides to varying degrees		Response in functional assay (words) (HalhaPK-R1a [3]; HalhaPK-R1a, Sf9 cells, concentration-response): positive concentration-dependent activity; also recorded: responded weakly; Response in functional assay (words) (HalhaPK-R2 [4]): strongest response; also recorded: responded strongly; also recorded: positive concentration-dependent activity; also recorded: much more sensitive to PK2 than the PK1 peptide; Response in functional assay (words) (HalhaPK-R3b [6]): positive concentration-dependent activity; also recorded: strongly responded to both PK1 and PK2 peptides; Response in functional assay (words) (HalhaPK-R1b [10]; HalhaPK-R1b, Sf9 cells, concentration-response): positive concentration-dependent activity; also recorded: responded weakly
> 1000	> 1000	> 1000	> 1000	80	> 1000	CC(C)C[C@H](NC(=O)CNC(=O)[C@H](C)NC(=O)[C@@H](N)CC(=O)O)C(=O)N[C@@H](Cc1ccccc1)C(=O)N1CCC[C@H]1C(=O)N[C@@H](Cc1ccccc1)C(=O)N1CCC[C@H]1C(=O)N[C@@H](CCCNC(=N)N)C(=O)N[C@H](C(N)=O)C(C)C [CAPA-PVK1]							responded specifically to PVK1 and PVK2 peptides; also recorded: concentration-dependent response to PVK1 and PVK2 (Figure 2), with similar sensitivity and degree of absolute magnitude	
660	> 1000	800	91	> 1000	> 1000	NGASGNGGLWFGPRL-NH2 [CAPA-DH/PK1]	concentration-dependent responses	responded to PK2 and CAPA-DH peptides to varying degrees	responded to PK2 and CAPA-DH peptides to varying degrees	responded to PK2 and CAPA-DH peptides to varying degrees	responded to PK2 and CAPA-DH peptides to varying degrees	responded to PK2 and CAPA-DH peptides to varying degrees		Response in functional assay (words) (HalhaPK-R2 [4]; listed as CAPA-DH): concentration-dependent responses; Response in functional assay (words) (HalhaPK-R2 [4]; listed as PK1): moderate response; Response in functional assay (words) (HalhaPK-R3b [6]; listed as CAPA-DH): highest sensitivity to PK1 (= CAPA-DH), especially for HalhaPK-R3b; also recorded: concentration-dependent responses; also recorded: most sensitive to CAPA-DH among the six GPCRs; Response in functional assay (words) (HalhaPK-R3b [6]; listed as PK1): strongest response to PK1; also recorded: strongly responded to both PK1 and PK2 peptides
> 1000	> 1000	> 1000	> 1000	57	> 1000	CC[C@H](C)[C@H](NC(=O)[C@H](CC(C)C)NC(=O)[C@H](CCC(N)=O)NC(=O)[C@@H](N)CCC(=O)O)C(=O)N1CCC[C@H]1C(=O)N[C@@H](Cc1ccccc1)C(=O)N1CCC[C@H]1C(=O)N[C@@H](CCCNC(=N)N)C(=O)N[C@H](C(N)=O)C(C)C [CAPA-PVK2]							responded specifically to PVK1 and PVK2 peptides; also recorded: concentration-dependent response to PVK1 and PVK2 (Figure 2), with similar sensitivity and degree of absolute magnitude	
